Assay results reported in patent US12509468B2, “Quindoline compounds and uses thereof” (Arizona Board of Regents on Behalf of the University of …, priority 2019, dated 2025).

Legend:
Format in all cases: binding
[1] = system: DNA oligomer containing the G-quadruplex forming region of the c-Myc promoter; experiment: FRET assay with c-Myc G-quadruplex oligomer (ED35); details: concentration of ligand that decreases relative fluorescence of DNA FRET probe (1 μM) by 35%
Procedure: All synthesized ligands are examined with a DNA oligomer containing the G-quadruplex forming region of the c-Myc promoter (d[[…]]). The oligomer is tagged with a 5′-FAM fluorophore and a 3′-Black Hole Quencher molecule. 1 μM oligomer is linearized by heating at 95° C. for 5 minutes in a 50 mM Tris-Acetate buffer (pH 7.1) and slowly cooled back to room temperature, allowing formation of a G-quadruplex. Ligand is added to the oligomer probe at various concentrations spanning a 2-3 log range (high dose of 10 μM), allowed to incubate for 15 minutes in the dark and fluorescence is read on the BioTek Synergy HT spectrophotometer (Biotek, Winooski, VT). Drug autofluorescence is subtracted, data is normalized to oligomer only, and ED35s are calculated from data fit by a sigmoidal top-to-bottom nonlinear regression. ED35s<10 μM are further analyzed by circular dichroism (CD).
Experimental values for compounds tested according to one or more of the preceding examples are reported in the following table, including, ED35 is the concentration of ligand that decreases the relative fluorescence of a DNA FRET probe (1 μM) by 35% (identified as the threshold to minimize false negatives). ED35 values are reported in ranges: A: >10 μM; B: ≤10 μM.

[2] = system: c-Myc oligomer (parallel G-quadruplex); experiment: Circular dichroism melting (ΔTm) with 1 equivalent of ligand; details: increase in melting temperature with 1 equivalent of ligand (DNA:Ligand=1:1)
Procedure: Non-labeled oligomers were prepared as described for FRET (Example VII). Ligands interacting with the c-Myc FRET oligomer are further examined for DNA secondary structure stabilization by CD (Sun et al., 2005). Briefly, the CD absorption spectra at 262 nm (parallel G-quadruplex) with increasing temperatures (4-95° C.) is examined in the absence and presence of 1 equivalence of ligand. TM is calculated by GraphPad Prizm using a top-to-bottom nonlinear fit, and ΔTM are calculated for each ligands.

Bcl-2 G-quadruplex = experiment: Competition dialysis, ligand bound to G-quadruplex; details: 2 μM of compound
Procedure: (§1) Following the competition dialysis assay method of the Chaires group (Ragazzon et al., Methods 2007, 42, 173-182, which is hereby incorporated by reference in its entirety) using 2 μM of the referenced compound, the concentration of ligand bound to G-quadruplex structure for a variety of target genes were determined.

HIF-1α G-quadruplex = experiment: Competition dialysis, ligand bound to G-quadruplex; details: 2 μM of compound
Procedure: as §1

MYC G-quadruplex = experiment: Competition dialysis, ligand bound to G-quadruplex; details: 2 μM of compound
Procedure: as §1

PDGF-Rβ G-quadruplex = experiment: Competition dialysis, ligand bound to G-quadruplex; details: 2 μM of compound
Procedure: as §1

PDGFA G-quadruplex = experiment: Competition dialysis, ligand bound to G-quadruplex; details: 2 μM of compound
Procedure: as §1

Telomeric G-quadruplex = experiment: Competition dialysis, ligand bound to G-quadruplex; details: 2 μM of compound
Procedure: as §1

VEGF G-quadruplex = experiment: Competition dialysis, ligand bound to G-quadruplex; details: 2 μM of compound
Procedure: as §1

hTERT G-quadruplex = experiment: Competition dialysis, ligand bound to G-quadruplex; details: 2 μM of compound
Procedure: as §1

| Structure (SMILES) | ED35 [1] | ΔTm [2] | also measured |
| --- | --- | --- | --- |
| c1ccc2c3c4c(nc2c1)c1ccccc1n4CCCN3CCCN1CCCCC1 [Compound 15] | B (B: ≤10 μM) | – | – |
| CN1CCN(C(=O)NCCN2CCCn3c4ccccc4c4nc5ccccc5c2c43)CC1 [Compound 8] | B (B: ≤10 μM) | B (B: >10° C.) | – |
| OC1CCN(CCCN2CCCn3c4ccccc4c4nc5ccccc5c2c43)CC1 [Compound 7] | B (B: ≤10 μM) | A (A: 0-10° C.) | – |
| CN1CCN(C(=O)N2C[C@H](O)CC2C(=O)NCCCN2CCCn3c4ccccc4c4nc5ccccc5c2c43)CC1 (some centres unmarked) [Compound 13] | B (B: ≤10 μM) | A (A: 0-10° C.) | – |
| c1ccc2c3c4c(nc2c1)c1ccccc1n4CCCN3CCN1CCOCC1 [Compound 1] | A (A: >10 μM) | A (A: 0-10° C.) | – |
| CN1CCN(CCCN2CCCn3c4ccccc4c4nc5ccccc5c2c43)CC1 [Compound 5] | A (A: >10 μM) | A (A: 0-10° C.) | – |
| c1ccc2c3c4c(nc2c1)c1ccccc1n4CCCN3CCCNc1ncnc2nc[nH]c12 [Compound 12] | B (B: ≤10 μM) | A (A: 0-10° C.) | – |
| c1ccc2c3c4c(nc2c1)c1ccccc1n4CCCN3CCCN1CCOCC1 [Compound 3] | B (B: ≤10 μM) | A (A: 0-10° C.) | concentration of ligand bound to G-quadruplex structure (Bcl-2 G-quadruplex): 3.0 µM; concentration of ligand bound to G-quadruplex structure (HIF-1α G-quadruplex): 4.0 µM; concentration of ligand bound to G-quadruplex structure (MYC G-quadruplex): 1.0 µM; concentration of ligand bound to G-quadruplex structure (PDGF-Rβ G-quadruplex): 0.0 µM; concentration of ligand bound to G-quadruplex structure (PDGFA G-quadruplex): 0.5 µM; concentration of ligand bound to G-quadruplex structure (Telomeric G-quadruplex): 1.0 µM; concentration of ligand bound to G-quadruplex structure (VEGF G-quadruplex): 3.0 µM; concentration of ligand bound to G-quadruplex structure (hTERT G-quadruplex): 10.5 µM |
